What all share (test): NCI anticancer screen, dose series, 48 h
The subject of experiment [1] is HCT-15 colon.
Experiment [2] has as its system HS 578T breast.
In experiment [3] the test system is LOX IMVI melanoma.
The test system of experiment [4] is MOLT-4 leukemia.
The subject of experiment [5] is NCI-H460 lung.
The subject of experiment [6] is SK-MEL-2 melanoma.
For experiment [7], the system named is SK-MEL-28 melanoma.
Experiment [8] has as its system SK-MEL-5 melanoma.
Experiment [9] relates to SNB-19 CNS.
Experiment [10] deals with UO-31 renal.

The structures appear in SMILES notation. “And” between values parts separate entries of the source, which are not always exact repeats. Equal entries are not always repeated.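 96-well plates; 48 h exposure; 5 concentrations. Endpoints by linear interpolation between flanking doses. Not reached: highest tested concentration assigned. At the GI50, growth is halved. TGI is the concentration that stops growth completely.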

For the compound `NC(CC(O)(c1ccccc1)c1ccccc1)c1ccccc1S` (configuration not stated), the TGI was 33.6 µM in [1]; 51 µM in [2]; 30.5 µM in experiment [3]; 59.6 µM in experiment [4]; 38.3 µM in experiment [5]; 33.2 µM in experiment [6]. Further, the TGI worked out at 31.5 µM in [7], 25.6 µM in [8], 32.4 µM in [9] and 23.5 µM in [10].
Regarding `COP(=O)(O)C(N)Cc1c[nH]c2ccccc12` (configuration not stated), the TGI in experiment [1], in experiment [2], in experiment [3], in experiment [4], in experiment [5] and in [6] was more than 100 µM each time. The TGI in experiment [7], in experiment [8], in experiment [9] and in experiment [10] was more than 100 µM in each case.
For `COC1(c2cccs2)c2ccccc2C(OC)(c2cccs2)c2ccccc21` (configuration not stated), the TGI in experiment [1] was more than 100 µM; in [2], 19.8 µM; in [3], more than 100 µM; in experiment [4], more than 100 µM; in experiment [5] it was more than 100 µM; in [6] it was more than 100 µM. The TGI in [7], in experiment [8], in [9] and in experiment [10] was more than 100 µM in each case.
As for `Cc1cc(N2CCCC2)c([N+](=O)[O-])cc1[N+](=O)[O-]`, the TGI in experiment [1], in experiment [2], in experiment [3], in [4], in experiment [5] and in experiment [6] was more than 100 µM each time. For the same compound, the TGI in experiment [7], in experiment [8], in [9] and in experiment [10] was more than 100 µM throughout.
As to `COC(=O)C1=CON2C3CC4CC(C3)CC(C4)C12C` (configuration not stated), the TGI in experiment [1], in experiment [2], in experiment [3], in experiment [4], in experiment [5] and in experiment [6] was more than 100 µM each time. Moreover, the TGI in experiment [7], in [8], in experiment [9] and in [10] was more than 100 µM throughout.
Consider `c1csc(-c2ccsc2-c2ccsc2)c1`, for which the TGI is more than 100 µM in experiment [1]; more than 100 µM in experiment [2]; more than 100 µM in [3]; more than 100 µM in experiment [4]; more than 100 µM in experiment [5]; 42.3 µM in experiment [6]. The TGI in [7], in [8] and in experiment [10] was more than 100 µM in each case.
As to `O=[N+]([O-])c1ccc(O)c(/C=N/c2nc(-c3ccccc3)cs2)c1`, the TGI in [1] is more than 89.7 µM; in experiment [2] it was 74.6 µM; in experiment [3] it was 38.7 µM; in experiment [4], 43.3 µM; in [5], more than 86.7 µM; in experiment [6] it was 70.5 µM. The TGI in experiment [7] is more than 100 µM; in experiment [8] it was 34.4 µM; in [9], more than 100 µM; in experiment [10] it was more than 86.4 µM.
As to `O=[N+]([O-])c1cccc(Cl)c1Oc1ccc(S(=O)(=O)/N=C(\NO)Nc2ccc(Cl)cc2)cc1`, the TGI in experiment [1] is 33.8 µM; in experiment [2] it was 27.6 µM; in experiment [3], 32.7 µM; in experiment [4], 19.3 µM; in experiment [5], 29.3 µM; in [6], 29.6 µM. Besides, the TGI in experiment [7] is 34.7 µM; in experiment [8] it was 24.7 µM; in experiment [9] it was 30.7 µM; in experiment [10] it was 23.7 µM.
Turning to `CCCCCN(CCCCC)CC(C)(C)C(O)c1ccc(OC)c2ccccc12` (configuration not stated), the TGI in experiment [1] turned out to be 21 µM; in experiment [2], 39.8 µM; in experiment [3], 4.99 µM; in experiment [4], 76.9 µM; in experiment [5] it was 24.9 µM; in experiment [6], 32.7 µM. In addition, the TGI came out at 24.5 µM in experiment [7], 12.8 µM in [8], 28 µM in experiment [9] and 8.93 µM in [10].
Take `CN[C@@H](C)[C@@H](O)c1ccccc1`: the TGI in [1], in experiment [2], in [3], in experiment [4], in experiment [5] and in experiment [6] was more than 100 µM each time. In addition, the TGI in experiment [7], in [8], in experiment [9] and in experiment [10] was more than 100 µM throughout.
For `Cc1cc(N(CCC#N)CCC#N)ccc1/C=C1\SC(=S)NC1=O`, the TGI was more than 100 µM in [1]; 85 µM in experiment [2]; more than 100 µM in experiment [3]; more than 100 µM in [4]; more than 100 µM in [5]; more than 100 µM in [6]. Moreover, the TGI in [7], in experiment [8], in experiment [9] and in [10] was more than 100 µM each time.
`CCN(CC)CCOC(=O)Cc1cccc2c(=O)cc(-c3ccccc3)oc12`: the GI50 is 82.5 µM in experiment [1]; 45.3 µM in [3]; 3.37 µM in [4]; 36.4 µM in experiment [5]; 52.9 µM in experiment [6]; 115 µM in experiment [7]. Further, the GI50 in experiment [8] is 81.5 µM; in experiment [9] it was 112 µM; in experiment [10] it was 295 µM. Besides, the TGI is 62.5 µM and > 216 µM in [1]; 62.5 µM in experiment [2]; 35.1 µM and > 240 µM in [3]; 62.5 µM in [4]; 62.5 µM and > 111 µM in [5]; 62.5 µM and > 212 µM in experiment [6]. The TGI in experiment [7] is 62.5 µM and > 237 µM; in [8] it was 62.5 µM and > 186 µM; in experiment [9], 62.5 µM and > 211 µM.
Take `CCOC(=O)C(=CN1CCNC1=S)C(=O)OCC`: the TGI in experiment [1], in [2], in experiment [3], in experiment [4], in experiment [5] and in experiment [6] was more than 100 µM each time. Besides, the TGI in experiment [7], in experiment [8], in experiment [9] and in [10] was more than 100 µM each time. Besides, the GI50 in experiment [2], in experiment [9] and in [10] was more than 100 µM each time.
Regarding `Nc1nc(=O)n(C2OC(CO)C(O)C2O)c2ncc(-c3ccc(-c4ccccc4)cc3)nc12` (configuration not stated), the TGI in experiment [1], in experiment [2], in experiment [3], in experiment [4], in experiment [5] and in experiment [6] was more than 100 µM in each case. Further, the TGI in [8], in experiment [9] and in [10] was more than 100 µM throughout.
On to `CN(C)CC1CCC/C(=C\c2ccc(OC(=O)/C=C/c3ccc(Cl)c(Cl)c3)cc2)C1=O` (configuration not stated), for which the TGI is 6.84 µM in [1]; more than 85.3 µM in experiment [2]; 4.01 µM in [3]; 4.13 µM in [4]; 23.2 µM in experiment [5]; 44.8 µM in [6]. The TGI in experiment [7] is 28.1 µM; in [8] it was 12.2 µM; in experiment [9], 18.6 µM; in [10] it was 13.9 µM.
With `COC(=O)NC(Cc1ccccc1)NC(C)=O` (configuration not stated), the TGI in [1], in experiment [2], in experiment [3], in experiment [4], in experiment [5] and in experiment [6] was more than 100 µM throughout. In addition, the TGI in experiment [7], in [8], in experiment [9] and in [10] was more than 100 µM each time.
Take `O=C(O)CNC(=O)c1ccc2cc(C(=O)N3CC(CCl)c4ccc([N+](=O)[O-])cc43)[nH]c2c1` (configuration not stated): the TGI in experiment [1], in experiment [2], in [3], in [4], in experiment [5] and in experiment [6] was more than 100 µM in each case. Further, the TGI in [8], in experiment [9] and in [10] was more than 100 µM each time.
Regarding `O=C(c1ccc(O)c([N+](=O)[O-])c1)c1ccc(O)c([N+](=O)[O-])c1`, the TGI in experiment [1], in experiment [2], in [3], in experiment [5], in experiment [6] and in [7] was more than 100 µM each time. Besides, the TGI in experiment [8], in experiment [9] and in experiment [10] was more than 100 µM throughout.
In the case of `O=C(C(Cl)=C(N1CCCCC1)N1CCCCC1)C(Cl)Cl`, the TGI in experiment [1], in experiment [2], in experiment [3], in [4], in experiment [5] and in experiment [7] was more than 100 µM throughout. Further, the TGI in experiment [8], in experiment [9] and in experiment [10] was more than 100 µM in each case.
On to `COc1ccc2c(c1)c1nn(CCN3CCCCC3)c3ccc4c(=O)n(CCN(C)C)c(=O)n2c4c13`, for which the TGI in experiment [1] was 0.0825 µM; in experiment [2], 0.412 µM; in experiment [3] it was 0.178 µM; in experiment [5] it was less than 0.0216 µM; in experiment [6], 0.271 µM; in experiment [7], 0.596 µM. The TGI in [8] turned out to be 0.283 µM; in [9], 0.532 µM; in [10], 0.354 µM.
As to `CCCc1nnc2sc(COc3cc(Cl)c(OCc4nn5c(CCC)nnc5s4)cc3Cl)nn12`, the TGI in [1], in experiment [2], in experiment [3], in experiment [4], in experiment [5] and in experiment [6] was more than 100 µM each time. In addition, the TGI in [7] is more than 100 µM; in experiment [8], 32.1 µM; in experiment [9], more than 100 µM.
With `CCC(=O)/C(=C\I)c1ccccc1`, the TGI in experiment [1] is 3.37 µM; in [2], more than 100 µM; in experiment [3], 2.96 µM; in experiment [4], 7.08 µM; in experiment [5], 25.5 µM; in experiment [6], 4.41 µM. Further, the TGI in [7] came to 6.45 µM; in [9], 29 µM; in experiment [10] it was 4.2 µM.
Take `O=C(N/N=C(/COc1ccccc1Cl)N=Cc1ccncc1)c1ccncc1`: the TGI in [1], in [2], in [3], in [4], in experiment [5] and in [6] was more than 100 µM throughout. For the same compound, the TGI in experiment [7] and in experiment [9] was more than 100 µM each time.
As to `COC(=O)c1ccccc1C1=C([N+](=O)[O-])C(c2ccccc2)C(C#N)=C(N)O1` (configuration not stated), the TGI was 46.6 µM in experiment [1]; more than 100 µM in experiment [2]; more than 100 µM in experiment [3]; more than 100 µM in experiment [4]; more than 100 µM in [5]; more than 100 µM in experiment [6]. In addition, the TGI in experiment [7], in experiment [8] and in experiment [9] was more than 100 µM in each case.
Turning to `CC(C)(C)OC(=O)N1[C@@H]2Cc3ccc(N)cc3[C@@]1(C)c1ccccc12`, the TGI was 32.9 µM in experiment [1]; more than 100 µM in experiment [2]; 62.1 µM in experiment [3]; 48.5 µM in experiment [4]; 48.8 µM in [5]; 43.4 µM in [6]. The TGI in experiment [8] was 12.4 µM; in [9], more than 100 µM; in experiment [10], more than 100 µM.
Take `COc1c(C)c(C/C=C(\C)CC/C=C(\C)CC/C=C(\C)CCC=C(C)C)c(OC)c2ccccc12`: the TGI in experiment [1], in experiment [2], in experiment [3], in [4], in [5] and in experiment [6] was more than 100 µM throughout. For the same compound, the TGI in experiment [8], in experiment [9] and in experiment [10] was more than 100 µM throughout.
For the compound `COc1ccc(CNc2nc3cc(C(F)(F)F)ccc3nc2-c2ccccc2)cc1OC`, the TGI in experiment [1] was more than 100 µM; in experiment [2] it was more than 100 µM; in experiment [3], 76.8 µM; in experiment [4] it was more than 100 µM; in experiment [5] it was 46.5 µM; in [6], more than 100 µM. In addition, the figures for the TGI in experiment [8], in experiment [9] and in experiment [10] were 42.4 µM, more than 100 µM and more than 100 µM, respectively.

Values taken from PubChem BioAssay (NCI).
